Patent US9676714B2, “Sulfonylindole derivatives and method for preparing the same” (Daewoong Pharmaceutical Co., Ltd., priority 2013, dated 2017)
pIC50: −log10 of the molar value. Where a name gives a salt, the structure may show the parent alone.

Tested on: basal gastric acid secretion
Experiment: Inhibitory effect on the basal gastric acid secretion in pylorus-ligated rats (Shay's rat model)
Format: in vivo, Sprague Dawley (SD) rats
Settings: 5 h, male SD rats, 3 mg/kg/2 ml into the duodenum, five hours after the ligation, total gastric acid secretion vs control group
Method: 3) Inhibitory Effect on the Basal Gastric Acid Secretion in Pylorus-Ligated Rats
Assays for determining inhibitory effect of the compounds of the present invention on the basal gastric acid secretion was performed according to Shay's rat model (Shay, H., et al., 1945, gastroenterology, 5, p. 43-61). Male Sprague Dawley (SD) rats with a body weight in the range of 180˜220 g were divided into test (n=5) and control groups (n=5), and fasted for 18 hours with free access to water. Under isoflurane anesthesia, the abdomens of the rats were incised and then the pylorus was ligated. After the ligation, the control groups were administered with only 10% ethanol, 20% polyethylene glycol (PEG) 400, and 10% aqueous Cremophor solution through the duodenum, and the other groups were administered with test compounds suspended in 10% ethanol, 20% PEG 400, and 10% aqueous Cremophor solution at a concentration of 3 mg/kg/2 ml into the duodenum. Five hours after the ligation, the experimental animals were euthanized and their stomach contents were collected. The thus obtained contents were centrifuged at 4,000×g for 10 minutes, and the supernatant was recovered to obtain gastric juice therefrom. The amount of the gastric juice and its pH were measured. The acidity of the gastric juice was determined by 0.1 N-NaOH volume (ueq/mL) for automatic titration of gastric acid to pH 7.0. The total acid output was obtained by multiplying the gastric acidity by the amount of gastric juice. Inhibition Activity (%) of Test Compounds=(total gastric acid secretion in control group−total gastric acid secretion in groups treated with test compounds)/total gastric acid secretion in control group×100

Structure (SMILES) | inhibition in vivo at 3 mg/kg [%]
CNCc1cn(S(=O)(=O)c2cccnc2)c2cc(Nc3ccc(C)cc3F)ccc12 [Example 1, N-(2-fluoro-4-methylphenyl)-3-((methylamino)methyl)-1-(pyridin-3-ylsulfonyl)-1H-indol-6-amine hydrochloride] | 58
CNCc1cn(S(=O)(=O)c2cccnc2)c2cc(Nc3ccc(C)cc3Cl)ccc12 [Example 22, N-(2-chloro-4-methylphenyl)-3-((methylamino)methyl)-1-(pyridin-3-ylsulfonyl)-1H-indol-6-amine] | 48
CNCc1cn(S(=O)(=O)c2cccnc2)c2cc(Nc3ccc(Cl)cc3F)ccc12 [Example 28, N-(4-chloro-2-fluorophenyl)-3-((methylamino)methyl)-1-(pyridin-3-ylsulfonyl)-1H-indol-6-amine hydrochloride] | 44

Biological target: T1, proton pump (H+/K+-ATPase) (Sus scrofa, UniProt P19156)
T1 construct: Gastric vesicles were prepared from hog stomach via centrifugal separation; from tissue; host or cells: hog stomach (gastric vesicles, method of Rabon et al. 1988)
T1 sequence (P19156 whole entry): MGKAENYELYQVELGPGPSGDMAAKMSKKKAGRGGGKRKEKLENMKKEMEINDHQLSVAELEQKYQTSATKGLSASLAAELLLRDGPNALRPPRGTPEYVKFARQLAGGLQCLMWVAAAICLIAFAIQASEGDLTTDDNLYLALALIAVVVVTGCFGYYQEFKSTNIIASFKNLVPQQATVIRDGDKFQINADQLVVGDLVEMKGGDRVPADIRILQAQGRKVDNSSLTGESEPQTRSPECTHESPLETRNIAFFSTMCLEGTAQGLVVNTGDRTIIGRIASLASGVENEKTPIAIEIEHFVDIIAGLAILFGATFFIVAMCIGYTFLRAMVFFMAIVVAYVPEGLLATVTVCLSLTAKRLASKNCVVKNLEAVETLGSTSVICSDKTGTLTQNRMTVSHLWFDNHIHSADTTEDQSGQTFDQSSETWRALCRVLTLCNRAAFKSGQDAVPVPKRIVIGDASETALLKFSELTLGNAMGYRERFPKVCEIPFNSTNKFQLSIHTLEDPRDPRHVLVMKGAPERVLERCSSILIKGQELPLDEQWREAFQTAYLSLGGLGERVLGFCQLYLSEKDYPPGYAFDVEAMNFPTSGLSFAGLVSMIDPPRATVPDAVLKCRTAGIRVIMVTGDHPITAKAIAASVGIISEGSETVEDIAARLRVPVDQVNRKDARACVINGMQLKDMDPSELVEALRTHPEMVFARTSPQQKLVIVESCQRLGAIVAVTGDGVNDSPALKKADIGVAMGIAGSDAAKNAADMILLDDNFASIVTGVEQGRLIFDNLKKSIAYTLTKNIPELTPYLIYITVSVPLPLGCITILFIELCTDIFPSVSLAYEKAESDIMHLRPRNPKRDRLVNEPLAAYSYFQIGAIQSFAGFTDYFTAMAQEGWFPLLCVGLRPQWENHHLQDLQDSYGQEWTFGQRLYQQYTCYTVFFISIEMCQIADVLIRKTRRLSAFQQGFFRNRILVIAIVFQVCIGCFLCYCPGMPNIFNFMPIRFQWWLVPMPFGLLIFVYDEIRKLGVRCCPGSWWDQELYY
T1 sequence (P18434 whole entry partner): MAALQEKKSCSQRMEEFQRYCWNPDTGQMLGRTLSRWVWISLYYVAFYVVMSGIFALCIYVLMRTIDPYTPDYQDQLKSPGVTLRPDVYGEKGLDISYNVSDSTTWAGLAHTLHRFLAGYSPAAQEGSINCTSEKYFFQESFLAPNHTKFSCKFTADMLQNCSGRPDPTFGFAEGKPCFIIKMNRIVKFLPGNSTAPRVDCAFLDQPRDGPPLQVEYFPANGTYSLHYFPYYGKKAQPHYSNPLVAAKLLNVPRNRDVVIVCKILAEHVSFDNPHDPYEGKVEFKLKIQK
Experiment: Measurement of inhibitory effects on proton pump (H+/K+-ATPase) activities
Format: biochemical
Settings: hog gastric vesicles, K+-specific H+/K+-ATPase activity, Tris-HCl buffer pH 7.4, 37° C. for 40 minutes, malachite green Pi readout
Method in brief: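 Hog gastric vesicles in 60 mmol/l Tris-HCl pH 7.4 with 0.5% DMSO were treated with compounds at room temperature; reaction was started with 10 μl of 10 mmol/l ATP stock. Released Pi was read at 570 nm, K+-specific activity taken as the ±K+ difference. IC50 from 4-parameter logistic fit.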

Structure (SMILES) | pIC50
CNCc1cn(S(=O)(=O)c2cccnc2)c2cc(Nc3ccc(C)cc3F)ccc12 [Example 1, N-(2-fluoro-4-methylphenyl)-3-((methylamino)methyl)-1-(pyridin-3-ylsulfonyl)-1H-indol-6-amine hydrochloride] | 6.74
CNCc1cn(S(=O)(=O)c2cccnc2)c2cc(Nc3ccc(C)cc3Cl)ccc12 [Example 22, N-(2-chloro-4-methylphenyl)-3-((methylamino)methyl)-1-(pyridin-3-ylsulfonyl)-1H-indol-6-amine] | 6.68
CNCc1cn(S(=O)(=O)c2cccnc2)c2cc(Nc3ccc(Cl)cc3F)ccc12 [Example 28, N-(4-chloro-2-fluorophenyl)-3-((methylamino)methyl)-1-(pyridin-3-ylsulfonyl)-1H-indol-6-amine hydrochloride] | 6.13
COc1ccc(Nc2ccc3c(C(=O)N(C)C)cn(S(=O)(=O)c4cccnc4)c3c2)c(Cl)n1 [Example 332, 6-((2-chloro-6-methoxypyridin-3-yl)amino)-N,N-dimethyl-1-(pyridin-3-ylsulfonyl)-1H-indol-3-carboxamide] | 4.22
CNc1cn(S(=O)(=O)c2cccnc2)c2cc(Nc3ccc(C)cc3F)ccc12 [Example 333, N6-(2-fluoro-4-methylphenyl)-N3-methyl-1-(pyridin-3ylsulfonyl)-1H-indol-3,6-diamine hydrochloride] | 5.23
COC(=O)c1cn(S(=O)(=O)c2cccnc2)c2cc(-c3ccc(OC)cc3)ccc12 [Example 335, methyl 6-(4-methoxyphenyl)-1-(pyridin-3-ylsulfonyl)-1H-indol-3-carboxylate] | 5.87
COC(=O)c1cn(S(=O)(=O)c2cccnc2)c2cc(-c3ccc(F)nc3)ccc12 [Example 336, methyl 6-(6-fluoropyridin-3-yl)-1-(pyridin-3-ylsulfonyl)-1H-indol-3-carboxylate] | 5.57
COC(=O)c1cn(S(=O)(=O)c2ccc(Cl)nc2)c2cc(-c3ccc(F)nc3)ccc12 [Example 337, methyl 1-((6-chloropyridin-3-yl)sulfonyl)-6-(6-fluoropyridin-3-yl)-1H-indol-3-carboxylate] | 5.50
COC(=O)c1cn(S(=O)(=O)c2cccnc2)c2cc(-c3ccc(OC)nc3)ccc12 [Example 338, methyl 6-(6-methoxypyridin-3-yl)-1-(pyridin-3-ylsulfonyl)-1H-indol-3-carboxylate] | 5.46
CNCc1cn(S(=O)(=O)c2cccc(F)c2)c2cc(Nc3ccc(C)cc3F)cnc12 [Example 339, N-(2-fluoro-4-methylphenyl)-1-((3-fluorophenyl)sulfonyl)-3-((methylamino)methyl)-1H-pyrrolo[3,2-b]pyridin-6-amine hydrochloride] | 6.43
CNCc1cn(S(=O)(=O)c2cccc(F)c2)c2cc(Nc3ccc(C)cc3OC(F)(F)F)cnc12 [Example 340, 1-((3-fluorophenyl)sulfonyl)-N-(4-methyl-2-(trifluoromethoxy)phenyl)-3-((methylamino)methyl)-1H-pyrrolo[3,2-b]pyridin-6-amine hydrochloride] | 6.24
CNCc1cn(S(=O)(=O)c2cccc(F)c2)c2cc(Nc3ccc(Cl)cc3C)cnc12 [Example 341, N-(4-chloro-2-methylphenyl)-1-((3-fluorophenyl)sulfonyl)-3-((methylamino)methyl)-1H-pyrrolo[3,2-b]pyridin-6-amine hydrochloride] | 6.42
CNCc1cn(S(=O)(=O)c2cccc(F)c2)c2cc(Nc3ccc(OC(F)(F)F)cc3OC)cnc12 [Example 343, 1-((3-fluorophenyl)sulfonyl)-N-(2-methoxy-4-(trifluoromethoxy)phenyl)-3-((methylamino)methyl)-1H-pyrrolo[3,2-b]pyridin-6-amine hydrochloride] | 5.72
CNCc1cn(S(=O)(=O)c2cccc(F)c2)c2cc(Nc3ccc(Cl)nc3C)cnc12 [Example 344, N-(6-chloro-2-methylpyridin-3-yl)-1-((3-fluorophenyl)sulfonyl)-3-((methylamino)methyl)-1H-pyrrolo[3,2-b]pyridin-6-amine hydrochloride] | 6.01
CNCc1cn(S(=O)(=O)c2cccnc2)c2cc(Nc3ccc(C)cc3Cl)cnc12 [Example 345, N-(2-chloro-4-methylphenyl)-3-((methylamino)methyl)-1-(pyridin-3-ylsulfonyl)-1H-pyrrolo[3,2-b]pyridin-6-amine hydrochloride] | 6.92
CNCc1cn(S(=O)(=O)c2cccnc2)c2cc(Nc3ccc(F)cc3C)cnc12 [Example 346, N-(4-fluoro-2-methylphenyl)-3-((methylamino)methyl)-1-(pyridin-3-ylsulfonyl)-1H-pyrrolo[3,2-b]pyridin-6-amine hydrochloride] | 6.64
CNCc1cn(S(=O)(=O)c2cccnc2)c2cc(Nc3ccc(F)cc3Cl)cnc12 [Example 347, N-(2-chloro-4-fluorophenyl)-3-((methylamino)methyl)-1-(pyridin-3-ylsulfonyl)-1H-pyrrolo[3,2-b]pyridin-6-amine hydrochloride] | 6.74
CNCc1cn(S(=O)(=O)c2cccnc2)c2cc(Nc3ccc(Cl)cc3C)cnc12 [Example 348, N-(4-chloro-2-methylphenyl)-3-((methylamino)methyl)-1-(pyridin-3-ylsulfonyl)-1H-pyrrolo[3,2-b]pyridin-6-amine hydrochloride] | 6.70
CNCc1cn(S(=O)(=O)c2cccnc2)c2cc(Nc3ccc(Cl)cc3Cl)cnc12 [Example 349, N-(2,4-dichlorophenyl)-3-((methylamino)methyl)-1-(pyridin-3-ylsulfonyl)-1H-pyrrolo[3,2-b]pyridin-6-amine hydrochloride] | 6.55
CNCc1cn(S(=O)(=O)c2cncc(F)c2)c2cc(Nc3ccc(C)cc3Cl)cnc12 [Example 350, N-(2-chloro-4-methylphenyl)-1-((5-fluoropyridin-3-yl)sulfonyl)-3-((methylamino)methyl)-1H-pyrrolo[3,2-b]pyridin-6-amine hydrochloride] | 6.59
CNCc1cn(S(=O)(=O)c2cncc(F)c2)c2cc(Nc3ccc(F)cc3C)cnc12 [Example 351, N-(4-fluoro-2-methylphenyl)-1-((5-fluoropyridin-3-yl)sulfonyl)-3-((methylamino)methyl)-1H-pyrrolo[3,2-b]pyridin-6-amine hydrochloride] | 6.46
CNCc1cn(S(=O)(=O)c2cncc(F)c2)c2cc(Nc3ccc(F)cc3Cl)cnc12 [Example 352, N-(2-chloro-4-fluorophenyl)-1-((5-fluoropyridin-3-yl)sulfonyl)-3-((methylamino)methyl)-1H-pyrrolo[3,2-b]pyridin-6-amine hydrochloride] | 6.60
CNCc1cn(S(=O)(=O)c2cccc(F)c2)c2cc(Nc3ccc(C)cc3Cl)ncc12 [Example 353, N-(2-chloro-4-methylphenyl)-1-((3-fluorophenyl)sulfonyl)-3-((methylamino)methyl)-1H-pyrrolo[3,2-c]pyridin-6-amine hydrochloride] | 6.08
CNCc1cn(S(=O)(=O)c2cccc(F)c2)c2cc(Nc3ccc(F)cc3C)ncc12 [Example 354, N-(4-fluoro-2-methylphenyl)-1-((3-fluorophenyl)sulfonyl)-3-((methylamino)methyl)-1H-pyrrolo[3,2-c]pyridin-6-amine hydrochloride] | 6.10
CNCc1cn(S(=O)(=O)c2cccc(F)c2)c2cc(Nc3ccc(F)cc3Cl)ncc12 [Example 355, N-(2-chloro-4-fluorophenyl)-1-((3-fluorophenyl)sulfonyl)-3-((methylamino)methyl)-1H-pyrrolo[3,2-c]pyridin-6-amine hydrochloride] | 6.32
CNCc1cn(S(=O)(=O)c2cccc(F)c2)c2cc(Nc3ccc(Cl)nc3Cl)ncc12 [Example 357, N-(2,6-dichloropyridin-3-yl)-1-((3-fluorophenyl)sulfonyl)-3-((methylamino)methyl)-1H-pyrrolo[3,2-c]pyridin-6-amine hydrochloride] | 6.02
CNCc1cn(S(=O)(=O)c2cccc(F)c2)c2cc(Nc3ccc(C)nc3Cl)ncc12 [Example 358, N-(2-chloro-6-methylpyridin-3-yl)-1-((3-fluorophenyl)sulfonyl)-3-((methylamino)methyl)-1H-pyrrolo[3,2-c]pyridin-6-amine hydrochloride] | 5.90
CNCc1cn(S(=O)(=O)c2cccc(F)c2)c2cc(Nc3ccc(C)cc3Cl)ncc12 [Example 359, N-(2-chloro-4-methylphenyl)-1-((3-fluorophenyl)sulfonyl)-3-((methylamino)methyl)-1H-pyrrolo[3,2-c]pyridin-6-amine hydrochloride] | 4.74
